Key:
[1] = Pharmacokinetic testing in crab-eating macaques (cynomolgus monkey), IV and PO; type: in vivo; settings: for AUC(0-t) at 24 h / C0 / clearance / half-life / Cmax / bioavailability: cynomolgus monkey, plasma; for bioavailability: 2 mg/kg vs IV 0.5 mg/kg; for pharmacokinetics compared to Orforglipron: comparison in words
Description: Crab-eating macaques were administered the compound of the present invention via intravenous injection and oral gavage, respectively. Plasma samples were collected at various time points. The drug concentration of the test compound in the plasma tissue of the crab-eating macaques was detected using an LC-MS/MS analytical method, and a pharmacokinetic analysis was conducted.
Solvent for intravenous injection dosing formulation: […] (DMSO)+5% polyethylene glycol (PEG)-15 hydroxystearate+90% o physiological saline.
Preparation steps for the intravenous injection dosing solution: Accurately weigh the test compound and add it to the aforementioned solvent for intravenous injection dosing to prepare a solution with a final concentration of 0.25 mg/mL.
Solvent for oral dosing formulation: 5% dimethyl sulfoxide (DMSO)+5% polyethylene glycol (PEG)-15 hydroxystearate+90% physiological saline.
Preparation steps for the oral dosing solution: Accurately weigh the test compound and add it to the aforementioned solvent for oral dosing to prepare a solution or suspension with a final concentration of 0.4 mg/mL.
Intravenous injection(IV): Administered via […].
Oral (PO): Select an appropriately sized gavage needle and syringe, insert the gavage needle into the esophagus from the base of the tongue, until it is close to the cardia of the stomach, then inject the drug formulation and remove the gavage needle. When using disposable plastic gavage needles, use one per group.
Blood is collected via a cephalic vein or other suitable vein, with approximately 1 mL per sample, anticoagulated with K2-EDTA, and placed on ice after collection. After collection, blood samples are kept on ice and centrifuged to separate the plasma within 1 hour (centrifugation conditions: 2200 g, 10 minutes, 2-8° C.). Plasma samples are stored at −80° C. before analysis and the remaining plasma samples after analysis are continued to be stored at −80° C. • 4. Sample Detection Plasma concentration detection: The developed LC-MS/MS method is used to detect the compound in the plasma in this experiment. • 5. Data Analysis A non-compartmental model is used to analyze the blood concentration-time data using Phoenix® WinNonlin® (Version 7.0, Pharsight, Mountain View, CA).

[2] = molecular target: T1, human GLP-1R (Homo sapiens, UniProt P43220); assay: cAMP accumulation assay (Hithunter cAMP Assay) in CHO-K1 cells stably expressing human GLP-1R; type: cell-based; settings: CHO-K1 cells expressing human GLP-1R; in the presence of BSA (1%); 30-minute incubation; relative EC50
T1 construct: expressed in transfected cells; host or cells: CHO-K1
Description: CHO-K1 cell line stably expressing human GLP-1R was used to detect the cAMP levels using Hithunter cAMP Assay for small molecules platform according manufacturer's instructions (DiscoverX, Cat #90-0075SM2). […] After a 30-minute incubation at 37° C., the cAMP antibody reagent, working solution (mixing 19-parts of lysis buffer, 5-parts of substrate reagent 1, 1-part of substrate reagent 2, and 25-parts of solution D (enzyme donor-labeled cAMP)), and solution A (enzyme […]) were added and incubated at room temperature in the dark. The resulting competitive assays were measured using Spectramax i3x Multi-Mode Detection system (Molecular Devices, USA). A relative EC50 was derived by nonlinear regression analysis by fitting to a 4-parameter logistic model in GraphPad Prism 9 software.

T1 sequence (P43220 24-463): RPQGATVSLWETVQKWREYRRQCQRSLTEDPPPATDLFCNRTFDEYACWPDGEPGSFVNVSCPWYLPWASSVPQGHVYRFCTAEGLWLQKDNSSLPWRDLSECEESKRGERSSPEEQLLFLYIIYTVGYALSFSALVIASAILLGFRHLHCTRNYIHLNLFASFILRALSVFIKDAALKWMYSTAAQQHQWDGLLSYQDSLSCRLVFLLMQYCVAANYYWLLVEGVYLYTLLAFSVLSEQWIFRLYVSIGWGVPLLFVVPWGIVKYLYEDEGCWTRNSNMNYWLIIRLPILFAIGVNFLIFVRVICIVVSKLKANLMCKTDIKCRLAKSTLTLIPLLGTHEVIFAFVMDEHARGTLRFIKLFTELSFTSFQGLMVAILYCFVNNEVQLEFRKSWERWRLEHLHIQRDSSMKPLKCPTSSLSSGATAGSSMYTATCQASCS

Cc1cc(-n2nc3c(c2-n2ccn(-c4ccc5c(cnn5C)c4F)c2=O)[C@H](C)N(C(=O)c2cc4cc([C@H]5CCOC(C)(C)C5)ccc4n2[C@@]2(c4noc(=O)[nH]4)C[C@@H]2C)CC3)cc(C)c1F [Orforglipron, reference compound]
AUC(0-t) at 24 h ([1]; IV, 0.5 mg/kg): 1780 ng·h/mL | C0 ([1]; IV, 0.5 mg/kg): 1170 ng/mL | clearance ([1]; IV, 0.5 mg/kg): 4.6 mL/min/kg | half-life ([1]; IV, 0.5 mg/kg): 3.4 h | AUC(0-t) at 24 h ([1]; PO, 2 mg/kg): 453 ng·h/mL | Cmax ([1]; PO, 2 mg/kg): 37.5 ng/mL | half-life ([1]; PO, 2 mg/kg): 6.2 h | bioavailability ([1]; PO): 6.3%

Cc1cc(-n2nc3c(c2-n2ccn(-c4ccc5c(cnn5C)c4F)c2=O)[C@H](C)N(C(=O)c2cc4cc([C@H]5CCOC(C)(C)C5)ccc4n2[C@@]2(c4noc(=O)[nH]4)[C@@H]4CN(c5ccccn5)C[C@@H]42)CC3)cc(C)c1F [Compound C-22, 3-[(1R,5S,6S)-6-{5-[(4S)-2,2-dimethyloxan-4-yl]-2-[(4S)-3-[3-(4-fluoro-1-methyl-1H-indazol-5-yl)-2-oxo-2,3-dihydro-1H-imidazol-1-yl]-2-(4-fluoro-3,5-dimethylphenyl)-4-methyl-2H,4H,5H,6H,7H-pyrazolo[4,3-c]pyridine-5-carbonyl]-1H-indol-1-yl}-3-(pyridin-2-yl)-3-azabicyclo[3.1.0]hexan-6-yl]-4,5-dihydro-1,2,4-oxadiazol-5-one]
pharmacokinetics compared to Orforglipron [1]: longer half-life, higher exposure, lower clearance rate, and greater bioavailability | AUC(0-t) at 24 h ([1]; IV, 0.5 mg/kg): 7560 ng·h/mL | C0 ([1]; IV, 0.5 mg/kg): 3810 ng/mL | clearance ([1]; IV, 0.5 mg/kg): 0.9 mL/min/kg | half-life ([1]; IV, 0.5 mg/kg): 10.3 h | AUC(0-t) at 24 h ([1]; PO, 2 mg/kg): 3590 ng·h/mL | Cmax ([1]; PO, 2 mg/kg): 236 ng/mL | half-life ([1]; PO, 2 mg/kg): 13.6 h | bioavailability ([1]; PO): 11.9%

Cc1cc(-n2nc3c(c2-n2ccn(-c4ccc5c(cnn5C)c4F)c2=O)[C@H](C)N(C(=O)c2cc4cc([C@H]5CCOC(C)(C)C5)ccc4n2[C@@]2(c4noc(=O)[nH]4)[C@@H]4CN(c5ncccn5)C[C@@H]42)CC3)cc(C)c1F [Compound C-12, 3-[(1R,5S,6S)-6-{5-[(4S)-2,2-dimethyloxan-4-yl]-2-[(4S)-3-[3-(4-fluoro-1-methyl-1H-indazol-5-yl)-2-oxo-2,3-dihydro-1H-imidazol-1-yl]-2-(4-fluoro-3,5-dimethylphenyl)-4-methyl-2H,4H,5H,6H,7H-pyrazolo[4,3-c]pyridine-5-carbonyl]-1H-indol-1-yl}-3-(pyrimidin-2-yl)-3-azabicyclo[3.1.0]hexan-6-yl]-4,5-dihydro-1,2,4-oxadiazol-5-one]
pharmacokinetics compared to Orforglipron [1]: longer half-life, higher exposure, lower clearance rate, and greater bioavailability | AUC(0-t) at 24 h ([1]; IV, 0.5 mg/kg): 6290 ng·h/mL | C0 ([1]; IV, 0.5 mg/kg): 6730 ng/mL | clearance ([1]; IV, 0.5 mg/kg): 1.3 mL/min/kg | half-life ([1]; IV, 0.5 mg/kg): 6.3 h | AUC(0-t) at 24 h ([1]; PO, 2 mg/kg): 6160 ng·h/mL | Cmax ([1]; PO, 2 mg/kg): 514 ng/mL | half-life ([1]; PO, 2 mg/kg): 5.9 h | bioavailability ([1]; PO): 24.5%

Cc1cc(-n2nc3c(c2-n2ccn(-c4ccc5c(cnn5C)c4F)c2=O)[C@H](C)N(C(=O)c2cc4cc(C5CCOCC5)ccc4n2[C@@]2(c4nnn[nH]4)[C@@H]4CN([C@H]5CC[C@H](O)CC5)C[C@@H]42)CC3)cc(C)c1F (single isomer, unassigned) [Compound C-17]
EC50 [2]: 0.2 nM

Cc1cc(-n2nc3c(c2-n2ccn(-c4ccc5c(cnn5C)c4F)c2=O)[C@H](C)N(C(=O)c2cc4cc(C5CCOCC5)ccc4n2[C@@]2(c4nnn[nH]4)[C@@H]4CN([C@H]5CC[C@@H](O)CC5)C[C@@H]42)CC3)cc(C)c1F (single isomer, unassigned) [Compound C-18]
EC50 [2]: 0.6 nM

Reference: patent US20260285858A1, “GLP-1 RECEPTOR TARGETING COMPOUNDS AND USES THEREOF” (FORTVITA BIOLOGICS INC., priority 2023, published 2026)
